How the values were obtained:
T47D cells = assay: Elesclomol combined with proteasome inhibitors, control and PSMD2 KD (Lo19S) T47D cells, CellTiter-Glo; type: cell-based, human
Description: FIGS. 38A-38D: Elesclomol synergizes with proteasome inhibitors. Validation of drug screen results. Control and PSMD2 knockdown cells were exposed to the indicated concentrations of either ixazomib (FIG. 38A) or elesclomol (FIG. 38B). Control (FIG. 38C) or PSMD2 KD (FIG. 38D) cells were treated with increasing concentrations of ixa.zomib in the presence or absence of the indicated concentrations of elesclomol. Cell viability was examined 72 hours after drug application using CellTiter-Glo.
(FIG. 39B) Cells with the 19S PSMD2 subunit KD were treated with indicated concentration of ixazomib or with indicated concentrations of ixazomib with 4:1 ratio of ixazomib to elesclomol (i,e, the concentration of elesclomol is 4× smaller than the indicated concentration of ixazomib). (FIG. 39C) The experiment described in (FIGS. 39A-39B).
FIGS. 50A-50D: Elesclomol targets the Lo19S state to block proteasome inhibitor resistance. […] The relative viability of the Lo19S versus control cells was calculated for replica experiments and the log2 of the ratio is plotted. […] The relative viability of the respiring cells (Hi-OXPHOS) (gal) versus the control cells (glu) was calculated for replica experiments and the log2 of the ratio is plotted. Specific compounds are annotated. […] Plotted are the mean±−SD of at least three replicas and the calculated EC50s. […]

K562 cells = assay: K562 viability and cell proliferation (relative cell number count), incl. FDX1 KO cells; type: cell-based, human; settings: FDX1-null cell line versus non-targeting control sgRNA
Source text: Despite its use in clinical trials on a limited number of malignancies, the elesclomol mechanism of action remains unclear. We therefore undertook a genetic approach to identify its direct target and to define cellular pathways that modulate the sensitivity of cancer cells to elesclomol-induced toxicity. […] We measured the relative abundance of each sgRNA in the compound-treated K562 cells at the beginning and end of the culture period. For each gene, we calculated its score as the mean log2 fold-change in abundance of all sgRNAs targeting the gene. […]
Viability and cell proliferation assays—Relative cell number count protocol—The viability of K562 cells was conducted by seeding cells at 250,000 cells/mL in 6-well plates of RPMI. […] Viable cell numbers were counted using countess (Invitrogen) every 2-3 days and cells were reseeded at 250,000 cells/mL in 6-well plates of RPMI to continue growth.
The viability of FDX1 KO K562 cells and AAVS1 KO and WT controls was examined by plating 100,000 cells/mL in 6-well cells in RPMI media (without glucose containing dialyzed serum) with either 10 mM glucose or 10 mM galactose. Viable cell numbers were counted every day using countess (Invitrogen).

FDX2 = target: T1, FDX2 (Homo sapiens, UniProt Q6P4F2); assay: In vitro Fe-S cluster assembly assay with reduced FDX2; type: biochemical; settings: reduced FDX2 substituted for reduced FDX1
T1 construct: made in house
T1 sequence (Q6P4F2 53-183): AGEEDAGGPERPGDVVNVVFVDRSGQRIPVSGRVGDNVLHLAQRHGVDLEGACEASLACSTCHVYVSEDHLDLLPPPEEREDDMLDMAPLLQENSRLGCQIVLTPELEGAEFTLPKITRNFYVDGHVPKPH
Source text: Fe—S clusters are generated from sulfur extracted from cysteine by the iron sulfur-cluster (ISC) core complex (NFS1-ISD11-Acp-ISCU)2 and iron. A reductant (FDX1 or FDX2) is required for Fc-S cluster biosynthesis (Lill and Muhlenhoff, 2006; Py and Barras, 2010) (FIG. 53A). To investigate the effect of elesclomol on mitochondrial Fe—S cluster biosynthesis, we utilized in vitro Fe—S cluster assembly assays. […] As further confirmation, we examined the effect of elesclomol on electron transfer from reduced FDX1 to the ISC core complex upon the addition of cysteine.
Protein Expression and Purification—Unlabeled samples of ISCU, unlabeled (NFS1-ISD11-Acp)2 (abbreviated as SDA), unlabeled and [U-^15N]-FDX1 (truncated first 61 amino acids) and unlabeled FDX2 were produced and purified as described previously (Cai et al., 2013; Cai et al., 2017a; Cai et al., 20176). FDX1 and FDX2 were reduced by adding a 10-fold excess of sodium dithionite to oxidized FDX1 or FDX2 in an anaerobic chamber (Coy Laboratory). The reduction of FDX1 or FDX2 was monitored by the color change from dark brown to light pink and by recording IN/vis spectra before and after reduction. […]
In vitro Fe—S cluster assembly assay—The in vitro Fe—S cluster assembly assays were carried out as follows. […] The growth of absorbance at 456 nm was used to monitor the assembly of [2Fe-2S] clusters.

`CN(NC(=O)CC(=O)NN(C)C(=S)c1ccccc1)C(=S)c1ccccc1` [elesclomol] was tested, and the “combination effect with proteasome inhibitors” value (T47D cells) was “synergizes”, the “effect of loss of FDX1 protein on sensitivity” value (K562 cells) was “confers relative resistance” and the “inhibition of in vitro Fe-S cluster assembly” value (FDX2) was “almost complete loss of inhibition”.

Source: patent US20180353445A1, “METHODS AND COMPOSITIONS RELATING TO PROTEASOME INHIBITOR RESISTANCE” (Whitehead Institute for Biomedical Research, priority 2017, published 2018)
